Calls of active or inactive are those of the source.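 Rule for the calls: active = compounds giving half or more protection of infected cells from virus-caused growth loss, again on retest; inactive = the rest.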
Test system: CEM cells HIV-1 protection, formazan growth assay
Test: NCI AIDS Antiviral Assay
Conditions: for IC50: measured here: growth of uninfected CEM cells
Outline: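 Human CEM cells, uninfected and HIV-1-infected, received five drug concentrations, and growth was read by soluble formazan assay. Compounds giving at least 50% protection were retested; reproducible 100% protection defined confirmed active.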

Compound	EC50 [µM]	IC50 [µM]	outcome
COC(=O)CCC(C)C1CCC2[C@@H]3CC[C@@H]4CC(O)CC[C@]4(C)C3CC[C@]12C (some centres not stated)	> 25.7	> 25.7	
O=C(O)c1c2ccccc2nc2[nH]c(=O)[nH]c(=O)c12		141	inactive
O/N=C(/CC(O)(C(F)(F)F)C(F)(F)F)c1ccccc1	> 200	> 200	
NC(CSSCC(N)Cc1ccccc1)Cc1ccccc1 (configuration not stated)	> 617	20.4	
CC[C@@H](C)C(=O)O[C@H]1[C@H](O)[C@H]2[C@@H](CN3C[C@@H](C)CC[C@H]3[C@@]2(C)O)[C@@H]2CC34O[C@]5(O)[C@@H](OC(=O)[C@@](C)(O)CC)CC[C@@]3(C)[C@@H]5[C@@H](OC(C)=O)[C@@H](OC(C)=O)[C@H]4[C@@]21O	> 200	> 200	
CC(=O)O[C@]12CCCCC1C1(O)C(O)CCCC[C@H]12 (some centres not stated)	> 200	> 200	
O=C1c2cccnc2S(=O)(=O)N1c1ccc([N+](=O)[O-])cc1	> 200	23.4	
O=C1OC(c2cccc(C(F)(F)F)c2)c2ccc3ccccc3c21 (configuration not stated)			inactive
CC(=O)N/N=C1/CC[C@@]2(C)C(=CC[C@H]3C4CCC(C(C)CCCC(C)C)[C@@]4(C)CCC32)C1(C)C (some centres not stated)	> 200	61.7	
COC(=O)NNc1c([N+](=O)[O-])cnn(-c2ccccc2)c1=O	> 58.9	0.295	
CCOC(=O)C(C(C)=O)C(CC(=O)OC)NC(=O)OCc1ccccc1 (configuration not stated)	> 257	> 257	
CN(C)Cc1cc(C=O)cc(CN(C)C)c1O	> 200	> 200	
COC(=O)C1=C(C=O)C2C=CC1C2 (configuration not stated)			inactive
CC1(Cl)C(=O)NC(=O)NC1O (configuration not stated)	> 200	> 200	
O=c1c(OC2OC(CO)C(O)C(O)C2OC2OCC(O)(CO)C2O)c(-c2ccc(O)cc2)oc2cc(O)cc(O)c12 (configuration not stated)	> 42.7	> 42.7	
COc1ccc([N+](=O)[O-])c2c(NCCC[N+](C)(C)[O-])c3ccccc3nc12	> 200	3.09	
Nc1nc2nc3c(nc2c(=O)[nH]1)CN(C1CCCCC1)C3=O	> 74.1	> 74.1	
O=C(NCCN(CCNC(=O)c1cccc(=O)n1O)CCN(CCNC(=O)c1cccc(=O)n1O)CCNC(=O)c1cccc(=O)n1O)c1cccc(=O)n1O	> 200	> 200	
Cn1cnc([N+](=O)[O-])c1Sc1nc(N)nc2nc[nH]c12	> 200	3.39	
CC(C)(C)[Si](C)(C)OCC1OC(n2ccc(=O)[nH]c2=O)C(O[Si](C)(C)C(C)(C)C)C1(O)C/C=N/O (configuration not stated)	> 200	7.59	
CC(C)(C)S(=O)OC12CC3CC(CC(C3)C1)C2 (configuration not stated)	> 708	151	

Compound	EC50 [µM]	IC50 [µM]	outcome
CC1(c2cccc(C3CCC4(C=CC3=O)OCCO4)c2)OCCO1 (configuration not stated)	> 200	1.91	
O=C1CN2C(Cl)(Cl)C2(c2ccccc2)c2cc(Cl)ccc2N1CC(F)(F)F (configuration not stated)	> 200	29.5	
O=C1c2cccc3cc([N+](=O)[O-])cc(c23)C(=O)N1CCc1ccccn1	> 200	4.37	
Cc1cc(C)c(C2CC(O)C(CO)O2)cc1C (configuration not stated)	> 200	> 200	
O=C(CC1(O)C(=O)Nc2ccc([N+](=O)[O-])cc21)c1ccncc1 (configuration not stated)	> 20.9	> 20.9	
COc1ccc(OC)c2[nH]c(Sc3c([N+](=O)[O-])ncn3C)nc12	> 21.4	7.08	
COc1ccc2c(c1)CC1=C(O2)c2ccc(OC)cc2OC1	> 200	10.2	
Cc1cc(=O)oc2c(CNC(Cc3ccccc3)C(=O)O)c(O)ccc12 (configuration not stated)	> 200	> 200	
COc1ccc(NC(=O)c2cc3cc(N=Nc4ccc(Br)cc4)ccc3oc2=O)cc1			inactive
CC(C)=CCC[C@@H](C)C1=C(O)C(Nc2ccccc2I)=C(C)C(=O)C1=O	> 200	6.76	
C/C(NNC(=O)c1ccccc1O)=C1\C=Nc2ccccc2S1	> 15.8	0.0794	
O=C(CP(=O)(c1ccccc1)c1ccccc1)c1cccc(C(=O)CP(=O)(c2ccccc2)c2ccccc2)c1	> 200	158	
O=c1cc(-c2ccccc2)oc2cc(OCCCOc3ccc4c(=O)cc(-c5ccccc5)oc4c3)ccc12	> 3.89	> 3.89	
Cc1ccc(S(=O)(=O)CNC(=O)C(O)(O)C(F)(F)F)cc1	> 200	> 200	
CC1(C)C2CCC1(C)C(Cl)([N+](=O)[O-])C2 (configuration not stated)			inactive
C=CCCCCCCCCC(=O)NCc1ccncc1	> 200	97.7	
CN(C)C(=N/O)/C(=N\O)N(C)C			inactive
CC(C)OC(=O)c1ccc(NCc2cc(O)ccc2O)cc1Cl	> 200	3.63	
O=C1OCc2nc3c(c(-c4ccccc4C(F)(F)F)c21)C(=O)OC3			inactive
Cn1c2ccccc2c2nc3ccccc3c(Cl)c21	> 200	135	
CCOC(=O)C1=CNC(C(=O)OCC)C1c1cccn1-c1ccccc1 (configuration not stated)	> 200	36.3	

Compound	EC50 [µM]	IC50 [µM]	outcome
CC(C)[Si](O[C@@H]1CCC[C@@]23O[C@@H]2CC2C(=O)c4c(O)cccc4C(=O)[C@@]2(O)[C@@H]13)(C(C)C)C(C)C (some centres not stated)	> 200	14.1	
CN(N)P(=O)(c1ccccc1)N(C)N	> 1150	501	
CC1CCC(C(C)C)C(OC(=O)NCn2cc(-c3ccccc3)nn2)C1 (configuration not stated)	> 200	> 200	
Nc1ccn(C2OC(COP(=O)(O)O)C(O)OC2O)c(=O)n1 (configuration not stated)			inactive
CC(C)(C)OC(=O)NCCCCC(NC(=O)OCc1ccccc1)C(N)=O (configuration not stated)	> 200	> 200	
N#CC(Cc1ccccc1)C(N)=O (configuration not stated)	> 200	> 200	
O=c1[nH]cnc2c1ncn2Cc1ccccc1CCO	> 93.3	> 93.3	
CC1=C(O)C(=O)C2C(=O)C1C1Cc3ccccc3C21 (configuration not stated)	> 513	> 513	
CCCCC1CC(c2ccc(Cl)cc2)=NO1 (configuration not stated)	> 21.9	> 21.9	
O=C1C2N=NNC2C(=O)N1c1ccccc1 (configuration not stated)	> 200	> 200	
CC1CC(c2ccc(Cl)c(Cl)c2)=Nc2ccccc2S1 (configuration not stated)	> 6.17	> 6.17	
Cc1cc(=NCCCN(C)C)c2ccc3c(ccc4c(=NCCCN(C)C)cc(C)n(O)c43)c2n1O	> 200	10.2	
CCN1CN(c2ccccc2)C2(CCN(CC(CC3OCCO3)c3ccc(F)cc3)CC2)C1=O (configuration not stated)	> 200	7.24	
FC(F)(F)c1ccc2c(c1)N(CCCN1CCNCC1)c1ccccc1S2	> 34.7	21.4	
CS(=O)CCN=Cc1ccc(N=Nc2ccc(O)cc2)cc1 (configuration not stated)	> 200	1.78	
O=[N+]([O-])c1ccc(C2CC(c3ccccc3)=Nc3ccccc3S2)cc1 (configuration not stated)	> 35.5	5.75	
O=S(=O)(O)c1cc(O)c2c(N=Nc3ccc(Nc4ccccc4)c4c(S(=O)(=O)O)cccc34)cc(S(=O)(=O)O)cc2c1	112	> 200	
C=C(C(=O)OC)c1cc2ccccc2n1S(=O)(=O)c1ccccc1	> 20	3.02	
COc1ccc(N2C(=O)[C@H]3CC(C)c4c([nH]c5ccccc45)[C@H]3C2=O)cc1 (some centres not stated)	> 41.7	0.871	
CCOC(=O)N1N=C(c2ccccc2)OC2(N3CCCC3)CCC(C(C)(C)C)CC12 (configuration not stated)	44.7	105	

Reference: PubChem BioAssay AID179 (DTP/NCI, 2004)
